Test results reported in US11746098B2, “Proteasome activity enhancing compounds” (Proteostasis Therapeutics, Inc., priority 2018, dated 2023).

Molecular target: USP14 (Homo sapiens, UniProt P54578)
Experiment: USP14 Inhibition Assay
Format: biochemical
Settings: average value from a minimum of two experimental determinations, read-out: IC50 Category
Text: The activity of the compound described herein to inhibit USP14 can be measured using previously described methodology [B. H. Lee et al. Nature 2010, 467 (9), 179, the contents of which are expressly incorporated by reference herein].
Example 6: USP14 Inhibition Assay

SMILES | IC50 [µM]
Cc1c(C(=O)CN2CCCCC2)cn(C)c1-c1ccc(Cl)cc1 [Compound 93, 1-(5-(4-Chlorophenyl)-1,4-dimethyl-1H-pyrrol-3-yl)-2-(piperidin-1-yl)ethanone] | < 0.5
Cc1c(C(=O)CN2CCC(O)CC2)cn(C)c1-c1ccc(Cl)cc1 [Compound 94, 1-(5-(4-Chlorophenyl)-1,4-dimethyl-1H-pyrrol-3-yl)-2-(4-hydroxypiperidin-1-yl)ethanone] | < 0.5
Cc1cc(C(=O)CN2CCC(O)CC2)n(C)c1-c1ccc(Cl)cc1 [Compound 95, 1-(5-(4-Chlorophenyl)-1,4-dimethyl-1H-pyrrol-2-yl)-2-(4-hydroxypiperidin-1-yl)ethanone] | < 0.5
Cc1cc(C(=O)CN2CCCCC2)n(C)c1-c1ccc(Cl)cc1 [Compound 96, 1-(5-(4-Chlorophenyl)-1,4-dimethyl-1H-pyrrol-2-yl)-2-(piperidin-1-yl)ethanone] | < 0.5
Cc1cc(C(=O)CN2CCCCC2)c(C)n1C1CCC(Cl)(Cl)CC1 [Compound 97, 1-(1-(4,4-Dichlorocyclohexyl)-2,5-dimethyl-1H-pyrrol-3-yl)-2-(piperidin-1-yl)ethanone] | < 0.5
Cc1cc(C(=O)C[n+]2ccccc2)c(C)n1-c1ccc(Cl)cc1 [Compound 99, 1-(2-(1-(4-Chlorophenyl)-2,5-dimethyl-1H-pyrrol-3-yl)-2-oxoethyl)pyridin-1-ium Chloride] | < 0.5
Cc1cc(C=O)c(C)n1-c1ccc(Cl)cc1 [Compound 100, 1-(4-Chlorophenyl)-2,5-dimethyl-1H-pyrrole-3-carbaldehyde] | > 5
Cc1cc(C(=O)CNCCO)c(C)n1-c1ccc(Cl)cc1 [Compound 101, 1-(1-(4-Chlorophenyl)-2,5-dimethyl-1H-pyrrol-3-yl)-2-((2-hydroxyethyl)amino)ethan-one] | > 5
Cc1cc(C(=O)CNCC2COC(C)(C)O2)c(C)n1-c1ccc(C#N)cc1 (stereo not shown) [Compound 102, 4-(3-(2-(((2,2-Dimethyl-1,3-dioxolan-4-yl)methyl)amino)acetyl)-2,5-dimethyl-1H-pyrrol-1-yl)benzonitrile] | > 5
Cc1cc(C(=O)CN2CCCCC2)c(C)n1[C@H]1CC[C@@H](C(N)=O)CC1 [Compound 103, cis-4-(2,5-Dimethyl-3-(2-(piperidin-1-yl)acetyl)-1H-pyrrol-1-yl)cyclohexanecarboxamide] | > 5
Cc1cc(C(=O)CN2CCCCC2)c(C)n1[C@H]1CC[C@@H](C#N)CC1 [Compound 105, cis-(2,5-Dimethyl-3-(2-(piperidin-1-yl)acetyl)-1H-pyrrol-1-yl)cyclohexanecarbonitrile] | > 5
Cc1cc(C(=O)CN2CCCCC2)c(C)n1CC(F)(F)F [Compound 107, 1-(2,5-Dimethyl-1-(2,2,2-trifluoroethyl)-1H-pyrrol-3-yl)-2-(piperidin-1-yl)ethanone] | > 5
Cc1cc(C(=O)CN2CCCCC2)c(C)n1-c1ccc(C(=O)OCc2ccccc2)cc1 [Compound 110, trans-Benzyl 4-(2,5-dimethyl-3-(2-(piperidin-1-yl)acetyl)-1H-pyrrol-1-yl)benzoate] | > 5
Cc1cc(C(=O)CN2CCC(O)CC2)c(C)n1-c1ccc(C(=O)OCc2ccccc2)cc1 [Compound 111, trans-Benzyl 4-(3-(2-(4-hydroxypiperidin-1-yl)acetyl)-2,5-dimethyl-1H-pyrrol-1-yl)benzoate] | > 5

Continued, values first:

IC50 [µM] | SMILES
> 5 | CCc1ccc(C(=O)CN2CCCCC2)n1-c1ccc(C#N)cc1 [Compound 112, 4-(2-Ethyl-5-(2-(piperidin-1-yl)acetyl)-1H-pyrrol-1-yl)benzonitrile]
> 5 | Cc1cc(C(=O)CN2CCC(O)CC2)c(C)n1-c1ccc(C(=O)O)cc1 [Compound 113, 4-(3-(2-(4-Hydroxypiperidin-1-yl)acetyl)-2,5-dimethyl-1H-pyrrol-1-yl)benzoic acid]
> 5 | Cc1cc(C(=O)CN2CCCCC2)c(C)n1-c1ccc(C(=O)O)cc1 [Compound 114, 4-(2,5-Dimethyl-3-(2-(piperidin-1-yl)acetyl)-1H-pyrrol-1-yl)benzoic acid]
> 5 | CC(=O)c1c(CN2CCCCC2)c(C)n(-c2ccc(C#N)cc2)c1C [Compound 117, 4-(3-Acetyl-2,5-dimethyl-4-(piperidin-1-ylmethyl)-1H-pyrrol-1-yl)benzonitrile]
> 5 | Cc1cc(C(=O)CN2CCCCC2)c(C)n1[C@H]1CC[C@H](C(=O)O)CC1 [Compound 121, trans-4-(2,5-Dimethyl-3-(2-(piperidin-1-yl)acetyl)-1H-pyrrol-1-yl)cyclohexane-1-carboxylic acid]
> 5 | Cc1cc(C(=O)CN2CCCCC2)c(C)n1[C@H]1CC[C@H](C(N)=O)CC1 [Compound 122, trans-4-(2,5-Dimethyl-3-(2-(piperidin-1-yl)acetyl)-1H-pyrrol-1-yl)cyclohexane-1-carboxamide]
0.5 to 5 | Cc1cc(C(=O)CNCC(O)CO)c(C)n1-c1ccc(C#N)cc1 (stereo not shown) [Compound 134, 4-(3-(2-((2,3-Dihydroxypropyl)amino)acetyl)-2,5-dimethyl-1H-pyrrol-1-yl)benzonitrile]
0.5 to 5 | Cc1cc(C(=O)CN2CCC(CNC(=O)OC(C)(C)C)CC2)c(C)n1-c1ccc(C#N)cc1 [Compound 135, tert-butyl ((1-(2-(1-(4-Cyanophenyl)-2,5-dimethyl-1H-pyrrol-3-yl)-2-oxoethyl)piperidin-4-yl)methyl)carbamate]
0.5 to 5 | CC#Cc1ccc(-n2c(C)cc(C(=O)CN3CCCCC3)c2C)cc1 [Compound 136, 1-(2,5-Dimethyl-1-(4-(prop-1-yn-1-yl)phenyl)-1H-pyrrol-3-yl)-2-(piperidin-1-yl)ethanone]
0.5 to 5 | Cc1c(C(=O)CN2CCCCC2)c(C)n(-c2ccc(Cl)cc2)c1C [Compound 137, 1-(1-(4-Chlorophenyl)-2,4,5-trimethyl-1H-pyrrol-3-yl)-2-(piperidin-1-yl)ethanone]
0.5 to 5 | Cc1cc(C(=O)CN(C)CCCCC(N)C(=O)O)c(C)n1-c1ccc(C#N)cc1 (stereo not shown) [Compound 138, 2-Amino-6-((2-(1-(4-cyanophenyl)-2,5-dimethyl-1H-pyrrol-3-yl)-2-oxoethyl)(methyl)amino)hexa-noic acid]
0.5 to 5 | Cc1c(C(=O)CN2CCC(O)CC2)c(C)n(-c2ccc(Cl)cc2)c1C [Compound 139, 1-(1-(4-Chlorophenyl)-2,4,5-trimethyl-1H-pyrrol-3-yl)-2-(4-hydroxypiperidin-1-yl)ethanone]
0.5 to 5 | CC#Cc1ccc(-n2c(C)cc(C(=O)CN3CCC(O)CC3)c2C)cc1 [Compound 140, 1-(2,5-Dimethyl-1-(4-(prop-1-yn-1-yl)phenyl)-1H-pyrrol-3-yl)-2-(4-hydroxypiperidin-1-yl)ethanone]
0.5 to 5 | Cc1cc(C(=O)CN2CCCCC2)c(C)n1[C@H]1CC[C@H](C#N)CC1 [Compound 143, trans-4-(2,5-Dimethyl-3-(2-(piperidin-1-yl)acetyl)-1H-pyrrol-1-yl)cyclohexane-1-carbonitrile]
< 0.5 | Cc1cc(C(=O)CN2CCC(CN)CC2)c(C)n1-c1ccc(C#N)cc1 [Compound 157, 4-(3-(2-(4-(Aminomethyl)piperidin-1-yl)acetyl)-2,5-dimethyl-1H-pyrrol-1-yl)benzonitrile]
< 0.5 | Cc1cc(C(=O)CN2CCCC(CNC(=O)OC(C)(C)C)C2)c(C)n1-c1ccc(C#N)cc1 (stereo not shown) [Compound 158, tert-butyl ((1-(2-(1-(4-cyanophenyl)-2,5-dimethyl-1H-pyrrol-3-yl)-2-oxoethyl)piperidin-3-yl)methyl)carbamate]
< 0.5 | Cc1cc(C(=O)CN2CCCC(CN)C2)c(C)n1-c1ccc(C#N)cc1 (stereo not shown) [Compound 159, 4-(3-(2-(3-(Aminomethyl)piperidin-1-yl)acetyl)-2,5-dimethyl-1H-pyrrol-1-yl)benzonitrile]
